Laboratory results from patent US10899738B2 (THE REGENTS OF THE UNIVERSITY OF MICHIGAN, priority 2016, dated 2021).
Like-named read-outs stand apart in the source and are kept apart here.

Key:
[1] = biological target: menin protein (Homo sapiens (Human), UniProt O00255); assay: biochemical; type: binding; settings: FP competitive binding; menin protein 4 nM, FAM-MM2 probe 2 nM; read-out: Menin Binding Affinity IC50
Method in brief: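 Competitive fluorescence polarization assay using FAM-labelled MLL1 peptide probe FAM-MM2 (2 nM final) preincubated with menin (4 nM final) in PBS with 0.02% bovine γ-globulin, 4% DMSO and 0.01% Triton X-100. Compounds were added and incubated 30 min at room temperature. IC50 came from nonlinear regression of competition curves, with Ki also derived.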

[2] = Cell growth inhibition, CellTiter-Glo Luminescent Cell Viability Assay; type: cell-based
Method in brief: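 Cells seeded at 2,000/well with serially diluted compound and cultured 4 days at 37 °C, 5% CO2. Viability read by CellTiter-Glo luminescence; IC50 derived from dose-response.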

[3] = read-out: Cell Growth Inhibition IC50 (μM) MOLM13, MOLM13 cells, 4 days, CellTiter-Glo
[4] = read-out: Cell Growth Inhibition IC50 (μM) MV4, 11, MV4, 11 cells, 4 days, CellTiter-Glo
[5] = MOLM-13, 96 h, read-out: Cell Growth Inhibition IC50 (μM) MOLM13, MOLM13 cells, 4 days, CellTiter-Glo
[6] = MV4-11, 96 h, read-out: Cell Growth Inhibition IC50 (μM) MV4, 11, MV4, 11 cells, 4 days, CellTiter-Glo

menin protein, sequence (O00255 whole entry): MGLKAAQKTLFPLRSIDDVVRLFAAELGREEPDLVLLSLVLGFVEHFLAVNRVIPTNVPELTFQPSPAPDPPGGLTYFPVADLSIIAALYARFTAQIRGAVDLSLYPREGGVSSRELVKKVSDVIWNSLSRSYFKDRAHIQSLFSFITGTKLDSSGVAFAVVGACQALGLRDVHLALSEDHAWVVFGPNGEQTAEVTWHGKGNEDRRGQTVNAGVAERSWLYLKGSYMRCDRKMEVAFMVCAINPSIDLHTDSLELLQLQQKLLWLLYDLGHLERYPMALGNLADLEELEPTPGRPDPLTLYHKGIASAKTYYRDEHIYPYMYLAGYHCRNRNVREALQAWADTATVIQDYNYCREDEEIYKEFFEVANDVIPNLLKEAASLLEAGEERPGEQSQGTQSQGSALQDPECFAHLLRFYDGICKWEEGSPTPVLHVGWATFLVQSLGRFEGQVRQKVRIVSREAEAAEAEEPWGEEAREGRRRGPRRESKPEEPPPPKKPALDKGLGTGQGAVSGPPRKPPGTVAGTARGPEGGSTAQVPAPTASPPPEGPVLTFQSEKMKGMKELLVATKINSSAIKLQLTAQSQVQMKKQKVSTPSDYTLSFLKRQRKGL

SMILES	IC50 [1]	IC50 [2, 3]	IC50 [2, 4]	IC50 [2, 5]	IC50 [2, 6]
CNC(=O)O[C@H]1CCC[C@@H]1C(Cn1ccnc1)(c1ccccc1)C1CCN(CC2CN(c3ccc(S(=O)(=O)c4ccc(C(=O)O)cc4)cc3)C2)CC1 (mixture of isomers) [compound 362, rac-4-((4-(3-((4-(2-(1H-imidazol-1-yl)-1-((1R,2S)-2-((methylcarbamoyl)oxy)cyclopentyl)-1-phenylethyl)piperidin-1-yl)methyl)azetidin-1-yl)phenyl)sulfonyl)benzoic acid]	0.008 µM	> 10 µM	4.79 µM	–	–
CNC(=O)O[C@H]1CCC[C@@H]1C(Cn1ccnc1)(c1ccccc1)C1CCN(CC2CN(c3ccc(S(=O)(=O)c4ccc(C(=O)O)cc4)cc3)C2)CC1 (mixture of isomers) [compound 363, rac-4-((4-(3-((4-(2-(1H-imidazol-1-yl)-1-((1R,2S)-2-((methylcarbamoyl)oxy)cyclopentyl)-1-phenylethyl)piperidin-1-yl)methyl)azetidin-1-yl)phenyl)sulfonyl)benzoic acid]	0.027 µM	2.64 µM	0.56 µM	–	–
CNC(=O)O[C@H]1CCC[C@@H]1C(C#N)(c1ccccc1)C1CCN(CC2CN(c3ccc(C(F)(F)F)cc3)C2)CC1 (mixture of isomers) [compound 367, rac-(1S,2R)-2-(cyano(phenyl)(1-((1-(4-(trifluoromethyl)phenyl)azetidin-3-yl)methyl)piperidin-4-yl)methyl)cyclopentyl methylcarbamate]	0.03 µM	–	–	2.96 µM	1.66 µM
CNC(=O)O[C@H]1CCC[C@@H]1C(C#N)(c1ccccc1)C1CCN(CC2(F)CN(c3ccc(S(=O)(=O)c4cnn(C)c4)cc3)C2)CC1 (mixture of isomers) [compound 369, rac-(1S,2R)-2-(cyano(1-((3-fluoro-1-(4-((1-methyl-1H-pyrazol-4-yl)sulfonyl)phenyl)azetidin-3-yl)methyl)piperidin-4-yl)(phenyl)methyl)cyclopentyl methylcarbamate]	0.068 µM	–	–	7.71 µM	3.5 µM
CNC(=O)O[C@H]1CCC[C@@H]1C(C#N)(c1ccccc1)C1CCN(CC2(C)CN(c3ccc(S(=O)(=O)c4cnn(C)c4)cc3)C2)CC1 (mixture of isomers) [compound 372, rac-(1S,2R)-2-(cyano(1-((3-methyl-1-(4-((1-methyl-1H-pyrazol-4-yl)sulfonyl)phenyl)azetidin-3-yl)methyl)piperidin-4-yl)(phenyl)methyl)cyclopentyl methylcarbamate]	0.048 µM	–	–	5.01 µM	2.03 µM
CCN1Cc2ccccc2C(C2CCN(CC3CN(c4ccc(S(=O)(=O)c5ccn(C)c5)cc4)C3)CC2)([C@H]2CCC[C@@H]2NC(=O)NC)C1 (mixture of isomers) [compound 375, rac-1-((1S,2R)-2-(2-ethyl-4-(1-((1-(4-((1-methyl-1H-pyrrol-3-yl)sulfonyl)phenyl)azetidin-3-yl)methyl)piperidin-4-yl)-1,2,3,4-tetrahydroisoquinolin-4-yl)cyclopentyl)-3-methylurea]	0.011 µM	–	–	1.73 µM	0.39 µM
CN(C)C(=O)N[C@H]1CCC[C@@H]1C(Cn1ccnc1)(c1ccccc1)C1CCN(CC2CN(c3ccc(S(=O)(=O)c4cnn(C)c4)cc3)C2)CC1 (mixture of isomers) [compound 376, rac-3-((1S,2R)-2-(2-(1H-imidazol-1-yl)-1-(1-((1-(4-((1-methyl-1H-pyrazol-4-yl)sulfonyl)phenyl)azetidin-3-yl)methyl)piperidin-4-yl)-1-phenylethyl)cyclopentyl)-1,1-dimethylurea]	0.006 µM	–	–	> 10 µM	10.5 ± 2.08 µM
CC(=O)N[C@H]1CCC[C@@H]1C(Cn1ccnc1)(c1ccccc1)C1CCN(CC2CN(c3ccc(S(=O)(=O)c4ccccc4)cc3)C2)CC1 (mixture of isomers) [compound 381, rac-N-((1S,2R)-2-(2-(1H-imidazol-1-yl)-1-phenyl-1-(1-((1-(4-(phenylsulfonyl)phenyl)azetidin-3-yl)methyl)piperidin-4-yl)ethyl)cyclopentyl) acetamide]	0.013 µM	–	–	0.67 µM	0.14 µM
CNC(=O)O[C@H]1CCC[C@@H]1C(Cn1ccnc1)(c1cccc(F)c1)C1CCN(CC2CN(c3ccc(C#N)cc3)C2)CC1 (mixture of isomers) [compound 390, rac-(1S,2R)-2-(1-(1-((1-(4-cyanophenyl)azetidin-3-yl)methyl)piperidin-4-yl)-1-(3-fluorophenyl)-2-(1H-imidazol-1-yl)ethyl)cyclopentyl methylcarbamate]	0.005 µM	–	–	0.082 µM	0.021 µM
COC(=O)N[C@H]1CCC[C@@H]1C(Cn1ccnc1)(c1ccccc1)C1CCN(CC2CN(c3ccc(S(=O)(=O)c4cnn(C)c4)cc3)C2)CC1 (mixture of isomers) [compound 392, methyl rac-((1S,2R)-2-(2-(1H-imidazol-1-yl)-1-(1-((1-(4-((1-methyl-1H-pyrazol-4-yl)sulfonyl)phenyl)azetidin-3-yl)methyl)piperidin-4-yl)-1-phenylethyl)cyclopentyl) carbamate]	0.007 µM	–	–	0.76 ± 0.32 µM	0.084 ± 0.032 µM
COC(=O)N[C@H]1CCC[C@@H]1C(C#N)(c1ccccc1)C1CCN(CC2CN(c3ccc(S(=O)(=O)c4ccc(F)cc4)cc3)C2)CC1 (mixture of isomers) [compound 394, methyl rac((1S,2R)-2-(cyano(1-((1-(4-((4-fluorophenyl)sulfonyl)phenyl)azetidin-3-yl)methyl)piperidin-4-yl)(phenyl)methyl)cyclopentyl) carbamate]	0.015 µM	–	–	1.94 µM	0.43 µM
COC(=O)N[C@H]1CCC[C@@H]1C(C#N)(c1ccccc1)C1CCN(CC2CN(c3ccc(S(=O)(=O)C4CC4)cc3Cl)C2)CC1 (mixture of isomers) [compound 395, methyl rac-((1S,2R)-2-((1-((1-(2-chloro-4-(cyclopropylsulfonyl)phenyl)azetidin-3-yl)methyl)piperidin-4-yl)(cyano)(phenyl)methyl)cyclopentyl)carbamate]	0.016 µM	–	–	2.29 µM	0.65 µM
COC(=O)N[C@H]1CCC[C@@H]1C(C#N)(c1ccccc1)C1CCN(CC2CN(c3ccc(S(=O)(=O)C4CC5CCC4C5)cc3)C2)CC1 (mixture of isomers) [compound 396, methyl rac-((1S,2R)-2-((1-((1-(4-(bicyclo[2.2.1]heptan-2-ylsulfonyl)phenyl)azetidin-3-yl)methyl)piperidin-4-yl)(cyano)(phenyl)methyl)cyclopentyl)carbamate]	0.012 µM	–	–	1.46 µM	0.46 µM
COC(=O)N[C@H]1CCC[C@@H]1C(C#N)(c1ccccc1)C1CCN(CC2(F)CN(c3ccc(S(=O)(=O)c4cnn(C)c4)cc3)C2)CC1 (mixture of isomers) [compound 397, methyl rac-((1S,2R)-2-(cyano(1-((3-fluoro-1-(4-((1-methyl-1H-pyrazol-4-yl)sulfonyl)phenyl)azetidin-3-yl)methyl)piperidin-4-yl)(phenyl)methyl)cyclopentyl) carbamate]	0.186 µM	–	–	> 10 µM	4.54 µM
COC(=O)N[C@H]1CCC[C@@H]1C(C#N)(c1ccccc1)C1CCN(CC2(C)CN(c3ccc(S(=O)(=O)c4cnn(C)c4)cc3)C2)CC1 (mixture of isomers) [compound 398, methyl rac-((1S,2R)-2-(cyano(1-((3-methyl-1-(4-((1-methyl-1H-pyrazol-4-yl)sulfonyl)phenyl)azetidin-3-yl)methyl)piperidin-4-yl)(phenyl)methyl)cyclopentyl) carbamate]	0.167 µM	–	–	> 10 µM	4.57 µM
